As usually defined, the IC50 is the midpoint of a concentration-inhibition curve.

The structures appear in SMILES notation.

For the assay, the target named is human adenosine A2b receptor (Homo sapiens (Human), UniProt P29275). In words: Cellular in vitro reporter gene test for A2b receptor activity (CHO-K1, CRE-luciferase, NECA stimulation). The format is cell-based. Particulars: recombinant CHO-K1 cell line, CRE-luciferase reporter, antagonism of EC50 concentration of NECA; in some cases means of several determinations, rounded to two significant figures; read-out: A2b receptor IC50. The procedure, abridged: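 CHO-K1 cells with CRE-driven luciferase; antagonists co-incubated with NECA at its EC50, determined in a pre-experiment on each test day. Luciferase read by luminescence 3 h after NECA addition.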
Chain of human adenosine A2b receptor (P29275 whole entry): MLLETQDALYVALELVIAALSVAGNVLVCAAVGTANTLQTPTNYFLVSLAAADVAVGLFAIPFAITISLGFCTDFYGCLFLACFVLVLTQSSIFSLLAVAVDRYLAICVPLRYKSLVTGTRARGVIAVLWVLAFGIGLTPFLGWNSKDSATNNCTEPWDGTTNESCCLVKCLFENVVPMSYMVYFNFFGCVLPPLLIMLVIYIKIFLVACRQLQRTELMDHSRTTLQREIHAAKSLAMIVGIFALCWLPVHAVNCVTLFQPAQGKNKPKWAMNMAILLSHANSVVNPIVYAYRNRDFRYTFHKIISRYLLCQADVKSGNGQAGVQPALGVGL
For `COC(C)Cn1c(=O)c2c(C)c(Cn3nc[nH]c3=O)sc2n(CCC(F)(F)F)c1=O` (single isomer, unassigned) [Example 441, 3-(2-Methoxypropyl)-5-methyl-6-[(5-oxo-4,5-dihydro-1H-1,2,4-triazol-1-yl)methyl]-1-(3,3,3-trifluoropropyl)thieno[2,3-d]pyrimidine-2,4(1H,3H)-dione], the IC50 worked out at 0.0086 µM.

With `CCn1c(=O)c2c(C(F)(F)F)c(CN3CCCS3(=O)=O)sc2n(CCC(F)(F)F)c1=O` [Example 19, 6-[(1,1-Dioxido-1,2-thiazolidin-2-yl)methyl]-3-ethyl-5-(trifluoromethyl)-1-(3,3,3-trifluoropropyl)thieno[2,3-d]pyrimidine-2,4(1H,3H)-dione], the IC50 was 0.0056 µM.

Consider `C=CCn1cnn(Cc2sc3c(c2C)c(=O)n(CC)c(=O)n3CCC(F)(F)F)c1=O` [Example 110, 6-[(4-Allyl-5-oxo-4,5-dihydro-H-1,2,4-triazol-1-yl)methyl]-3-ethyl-5-methyl-1-(3,3,3-trifluoropropyl)thieno[2,3-d]pyrimidine-2,4(1H,3H)-dione], for which the IC50 came out at 0.079 µM.

Turning to `C=CCn1cnn(Cc2sc3c(c2C)c(=O)n(CC)c(=O)n3CF)c1=O` [Example 349, 6-[(4-Allyl-5-oxo-4,5-dihydro-1H-1,2,4-triazol-1-yl)methyl]-3-ethyl-1-(fluoromethyl)-5-methylthieno[2,3-d]pyrimidine-2,4(1H,3H)-dione], the IC50 was 0.63 µM.

Regarding `[2H]C([2H])(c1sc2c(c1C)c(=O)n(CC(F)(F)F)c(=O)n2CCOC)N1CCNC1=O` [Example 500, 1-(2-Methoxyethyl)-5-methyl-6-[(2-oxoimidazolidin-1-yl)(dideutero)methyl]-3-(2,2,2-trifluoroethyl)thieno[2,3-d]pyrimidine-2,4(1H,3H)-dione], the IC50 was 0.01 µM.

In the case of `COCCn1c(=O)n(C(C)COC)c(=O)c2c(C)c(CN3CCNC3=O)sc21` (racemic) [Example 329, 1-(2-Methoxyethyl)-3-(1-methoxypropan-2-yl)-5-methyl-6-[(2-oxoimidazolidin-1-yl)methyl]thieno[2,3-d]pyrimidine-2,4(1H,3H)-dione], the half-inhibitory concentration (IC50) came to 0.9 µM.

Take `Cc1c(CN2CCNC2=S)sc2c1c(=O)n(CC(F)F)c(=O)n2CC1COC1` [Example 165, 3-(2,2-Difluoroethyl)-5-methyl-1-(oxetan-3-ylmethyl)-6-[(2-thioxoimidazolidin-1-yl)methyl]thieno[2,3-d]pyrimidine-2,4(1H,3H)-dione]: the concentration for half-maximal inhibition (IC50) amounted to 0.0065 µM.

On to `CCn1c(=O)c2c(C(F)F)c(CN3CCNC3=O)sc2n(CCC(F)(F)F)c1=O` [Example 100, 5-(Difluoromethyl)-3-ethyl-6-[(2-oxoimidazolidin-1-yl)methyl]-1-(3,3,3-trifluoropropyl)thieno[2,3-d]pyrimidine-2,4(1H,3H)-dione], for which the half-inhibitory concentration (IC50) is 0.0068 µM.

For `Cc1c(Cn2[nH]ccc2=O)sc2c1c(=O)n(CC(F)(F)F)c(=O)n2CCC(F)(F)F` [Example 282, 5-Methyl-6-[(5-oxo-2,5-dihydro-1H-pyrazol-1-yl)methyl]-3-(2,2,2-trifluoroethyl)-1-(3,3,3-trifluoropropyl)thieno[2,3-d]pyrimidine-2,4(1H,3H)-dione], the IC50 is 0.03 µM.

`CCn1c(=O)c2c(C)c(CN3CCNC3=NC(=O)OC)sc2n(CC2CCCO2)c1=O` (racemic) [Example 374, Methyl [1-{[3-ethyl-5-methyl-2,4-dioxo-1-(tetrahydrofuran-2-ylmethyl)-1,2,3,4-tetrahydrothieno[2,3-d]pyrimidin-6-yl]methyl}imidazolidin-2-ylidene]carbamate]: the concentration for half-maximal inhibition (IC50) was found to be 0.007 µM.

In the case of `COCCn1c(=O)n(CC(C)(C)C)c(=O)c2c(C)c(Cn3cc[nH]c3=O)sc21` [Example 506, 3-(2,2-Dimethylpropyl)-1-(2-methoxyethyl)-5-methyl-6-[(2-oxo-2,3-dihydro-1H-imidazol-1-yl)methyl]thieno[2,3-d]pyrimidine-2,4(1H,3H)-dione], the concentration for half-maximal inhibition (IC50) worked out at 0.012 µM.

In the case of `COC(=O)N=C1NCCN1Cc1sc2c(c1C)c(=O)n(C(C)C)c(=O)n2CC1CCO1` (racemic) [Example 379, Methyl [1-{[3-isopropyl-5-methyl-1-(oxetan-2-ylmethyl)-2,4-dioxo-1,2,3,4-tetrahydrothieno[2,3-d]pyrimidin-6-yl]methyl}imidazolidin-2-ylidene]carbamate], the IC50 worked out at 0.013 µM.

With `CCn1c(=O)c2c(C)c(CN3CCNC3=S)sc2n(CCOC(C)C)c1=O` [Example 33, 3-Ethyl-1-(2-isopropoxyethyl)-5-methyl-6-[(2-thioxoimidazolidin-1-yl)methyl]thieno[2,3-d]pyrimidine-2,4(1H,3H)-dione], the IC50 was found to be 0.012 µM.

For `Cc1c(Cn2[nH]ccc2=O)sc2c1c(=O)n(CC(F)(F)F)c(=O)n2CC1CCCO1` (single isomer, unassigned) [Example 285, 5-Methyl-6-[(5-oxo-2,5-dihydro-1H-pyrazol-1-yl)methyl]-1-(tetrahydrofuran-2-ylmethyl)-3-(2,2,2-trifluoroethyl)thieno[2,3-d]pyrimidine-2,4(1H,3H)-dione], the IC50 turned out to be 0.091 µM.

As for `COCCn1c(=O)n(C(C)C)c(=O)c2c(C)c(Cn3cc[nH]c3=O)sc21` [Example 246, 3-Isopropyl-1-(2-methoxyethyl)-5-methyl-6-[(2-oxo-2,3-dihydro-1H-imidazol-1-yl)methyl]thieno[2,3-d]pyrimidine-2,4(1H,3H)-dione], the IC50 worked out at 0.0047 µM.

In the case of `CCn1c(=O)c2c(C)c(CN3CC(N)CC3=O)sc2n(CCC(F)(F)F)c1=O` (racemic) [Example 9, 6-[(4-Amino-2-oxopyrrolidin-1-yl)methyl]-3-ethyl-5-methyl-1-(3,3,3-trifluoropropyl)thieno[2,3-d]pyrimidine-2,4(1H,3H)-dione (racemate)], the IC50 turned out to be 0.097 µM.

Consider `Cc1c(CN2CCNC2=O)sc2c1c(=O)n(CC(F)F)c(=O)n2CC1CCCO1` (single isomer, unassigned) [Example 221, 3-(2,2-Difluoroethyl)-5-methyl-6-[(2-oxoimidazolidin-1-yl)methyl]-1-(tetrahydrofuran-2-ylmethyl)thieno[2,3-d]pyrimidine-2,4(1H,3H)-dione], for which the IC50 came to 0.029 µM.

Regarding `CCn1c(=O)c2c(C)c(C(C)N3CCNC3=O)sc2n(CCC(F)(F)F)c1=O` (racemic) [Example 416, 3-Ethyl-5-methyl-6-[1-(2-oxoimidazolidin-1-yl)ethyl]-1-(3,3,3-trifluoropropyl)thieno[2,3-d]pyrimidine-2,4(1H,3H)-dione], the half-maximal inhibitory concentration (IC50) turned out to be 0.079 µM.

With `CCn1c(=O)c2c(C)c(CN3CC[C@@H](O)C3=O)sc2n(CCOC)c1=O` [Example 7, 3-Ethyl-6-{[(3R)-3-hydroxy-2-oxopyrrolidin-1-yl]methyl}-1-(2-methoxyethyl)-5-methylthieno[2,3-d]pyrimidine-2,4(1H,3H)-dione], the half-maximal inhibitory concentration (IC50) turned out to be 0.033 µM.

As to `Cc1c(CN2CCNC2=S)sc2c1c(=O)n(CC(F)(F)F)c(=O)n2CC1CCO1` (single isomer, unassigned) [Example 155, 5-Methyl-1-(oxetan-2-ylmethyl)-6-[(2-thioxoimidazolidin-1-yl)methyl]-3-(2,2,2-trifluoroethyl)thieno[2,3-d]pyrimidine-2,4(1H,3H)-dione], the IC50 turned out to be 0.026 µM.

For `CCn1c(=O)c2c(C)c(CN3CCNC3=O)sc2n(CCOC(F)(F)F)c1=O` [Example 57, 3-Ethyl-5-methyl-6-[(2-oxoimidazolidin-1-yl)methyl]-1-[2-(trifluoromethoxy)ethyl]thieno[2,3-d]pyrimidine-2,4(1H,3H)-dione], the 50% inhibitory concentration (IC50) is 0.00088 µM.

Regarding `CCn1c(=O)c2c(C)c(CN3CCNC3=NC#N)sc2n(CC2CCO2)c1=O` (racemic) [Example 256, [1-{[3-Ethyl-5-methyl-1-(oxetan-2-ylmethyl)-2,4-dioxo-1,2,3,4-tetrahydrothieno[2,3-d]pyrimidin-6-yl]methyl}imidazolidin-2-ylidene]cyanamide], the IC50 is 0.011 µM.

Consider `Cc1c(CN2CCNC2=S)sc2c1c(=O)n(CC(F)(F)F)c(=O)n2CC1CCO1` (racemic) [Example 154, 5-Methyl-1-(oxetan-2-ylmethyl)-6-[(2-thioxoimidazolidin-1-yl)methyl]-3-(2,2,2-trifluoroethyl)thieno[2,3-d]pyrimidine-2,4(1H,3H)-dione], for which the 50% inhibitory concentration (IC50) amounted to 0.0071 µM.

As for `CCn1c(=O)c2c(C)c(Cn3nc[nH]c3=O)sc2n(CC2CCCO2)c1=O` (single isomer, unassigned) [Example 420, 3-Ethyl-5-methyl-6-[(5-oxo-4,5-dihydro-1H-1,2,4-triazol-1-yl)methyl]-1-(tetrahydrofuran-2-ylmethyl)thieno[2,3-d]pyrimidine-2,4(1H,3H)-dione], the half-maximal inhibitory concentration (IC50) is 0.05 µM.

As to `Cc1c(CN2CCN(C(C)C)C2=S)sc2c1c(=O)n(CC(F)(F)F)c(=O)n2C` [Example 305, 6-[(3-Isopropyl-2-thioxoimidazolidin-1-yl)methyl]-1,5-dimethyl-3-(2,2,2-trifluoroethyl)thieno[2,3-d]pyrimidine-2,4(1H,3H)-dione], the concentration for half-maximal inhibition (IC50) was 0.14 µM.

With `CCN1CCN(Cc2sc3c(c2C)c(=O)n(CCc2ccccc2)c(=O)n3CCOC)C1=O` [Example 239, 6-[(3-Ethyl-2-oxoimidazolidin-1-yl)methyl]-1-(2-methoxyethyl)-5-methyl-3-(2-phenylethyl)thieno[2,3-d]pyrimidine-2,4(1H,3H)-dione], the IC50 was determined as 0.011 µM.

Regarding `COC(C)Cn1c(=O)c2c(C)c(CN3CCNC3=NC#N)sc2n(CCC(F)(F)F)c1=O` (racemic) [Example 454, [1-{[3-(2-Methoxypropyl)-5-methyl-2,4-dioxo-1-(3,3,3-trifluoropropyl)-1,2,3,4-tetrahydrothieno[2,3-d]pyrimidin-6-yl]methyl}imidazolidin-2-ylidene]cyanamide], the IC50 came out at 0.0061 µM.

For `COCCn1c(=O)c2c(C)c(CN3CCNC3=NC(=O)OC)sc2n(CCC(F)(F)F)c1=O` [Example 385, Methyl [1-{[3-(2-methoxyethyl)-5-methyl-2,4-dioxo-1-(3,3,3-trifluoropropyl)-1,2,3,4-tetrahydrothieno[2,3-d]pyrimidin-6-yl]methyl}imidazolidin-2-ylidene]carbamate], the half-inhibitory concentration (IC50) worked out at 0.0047 µM.

(Values after patent publication US10428083B2, “Heterocyclylmethyl-thienouracile as antagonists of the adenosine-A2B-receptor” (BAYER PHARMA AKTIENGESELLSCHAFT, priority 2015, dated 2019).)
